Values joined by “and” are separate entries in the source; they are usually repeats but may differ in a detail not shown here. Identical values can stand only once. Values belong to the compound of their own block, whether it stands above or below them.
System: 186277-243-T-J2-PDC multi-cell spheroid viability
Test: Anticancer human tumor 186277-243-T-J2-PDC patient-derived colon adenocarcinoma cell line growth inhibition [PI3K]
Conditions: for viability, T/C: stronger effect = lower value
How it was run: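 Targeted small molecules plus PI3K inhibitors, half-log dose series from Cmax (default top 10 microM), were applied to heterotypic spheroids of cancer cells with HUVEC and MSCs. Viability indicated growth inhibition.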

[1] = curve of first compound, second compound 0.0316 µM
[2] = curve of first compound, second compound 0.1 µM
[3] = curve of first compound, second compound 0.316 µM
[4] = curve of first compound, second compound 1 µM
[5] = curve of first compound, second compound 3.16 µM
[6] = curve of first compound, second compound 10 µM
[7] = second compound 0.0316 µM, first compound 0.0316 µM
[8] = second compound 0.0316 µM, first compound 0.1 µM
[9] = second compound 0.0316 µM, first compound 0.316 µM
[10] = second compound 0.0316 µM, first compound 1 µM
[11] = second compound 0.0316 µM, first compound 3.16 µM
[12] = second compound 0.0316 µM, first compound 10 µM
[13] = second compound 0.1 µM, first compound 0.0316 µM
[14] = second compound 0.1 µM, first compound 0.1 µM
[15] = second compound 0.1 µM, first compound 0.316 µM
[16] = second compound 0.1 µM, first compound 1 µM
[17] = second compound 0.1 µM, first compound 3.16 µM
[18] = second compound 0.1 µM, first compound 10 µM
[19] = second compound 0.316 µM, first compound 0.0316 µM
[20] = second compound 0.316 µM, first compound 0.1 µM
[21] = second compound 0.316 µM, first compound 0.316 µM
[22] = second compound 0.316 µM, first compound 1 µM
[23] = second compound 0.316 µM, first compound 3.16 µM
[24] = second compound 0.316 µM, first compound 10 µM
[25] = second compound 1 µM, first compound 0.0316 µM
[26] = second compound 1 µM, first compound 0.1 µM
[27] = second compound 1 µM, first compound 0.316 µM
[28] = second compound 1 µM, first compound 1 µM
[29] = second compound 1 µM, first compound 3.16 µM
[30] = second compound 1 µM, first compound 10 µM
[31] = second compound 3.16 µM, first compound 0.0316 µM
[32] = second compound 3.16 µM, first compound 0.1 µM
[33] = second compound 3.16 µM, first compound 0.316 µM
[34] = second compound 3.16 µM, first compound 1 µM
[35] = second compound 3.16 µM, first compound 3.16 µM
[36] = second compound 3.16 µM, first compound 10 µM
[37] = second compound 10 µM, first compound 0.0316 µM
[38] = second compound 10 µM, first compound 0.1 µM
[39] = second compound 10 µM, first compound 0.316 µM
[40] = second compound 10 µM, first compound 1 µM
[41] = second compound 10 µM, first compound 3.16 µM
[42] = second compound 10 µM, first compound 10 µM
[43] = curve of first compound, second compound 0.00316 µM
[44] = curve of first compound, second compound 0.01 µM
[45] = second compound 0.00316 µM, first compound 0.0316 µM
[46] = second compound 0.00316 µM, first compound 0.1 µM
[47] = second compound 0.00316 µM, first compound 0.316 µM
[48] = second compound 0.00316 µM, first compound 1 µM
[49] = second compound 0.00316 µM, first compound 3.16 µM
[50] = second compound 0.00316 µM, first compound 10 µM
[51] = second compound 0.01 µM, first compound 0.0316 µM
[52] = second compound 0.01 µM, first compound 0.1 µM
[53] = second compound 0.01 µM, first compound 0.316 µM
[54] = second compound 0.01 µM, first compound 1 µM
[55] = second compound 0.01 µM, first compound 3.16 µM
[56] = second compound 0.01 µM, first compound 10 µM
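Also: spheroids exposed to compounds for seven days before viability reading.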
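For viability, T/C in this document: 100% = DMSO vehicle control viability.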

Structure (SMILES): CCCS(=O)(=O)Nc1ccc(F)c(C(=O)c2c[nH]c3ncc(-c4ccc(Cl)cc4)cc23)c1F + CC(Nc1ncnc2nc[nH]c12)c1cc2cccc(Cl)c2c(=O)n1-c1ccccc1
IC50 [1]: 5.69 µM
IC50 [2]: 5.06 µM
IC50 [3]: 4.97 µM
IC50 [4]: 5.21 µM
IC50 [5]: 5.3 µM
IC50 [6]: 5.48 µM
viability, T/C [7]: 85.8%
viability, T/C [8]: 96.6%
viability, T/C [9]: 105%
viability, T/C [10]: 85.6%
viability, T/C [11]: 96.5%
viability, T/C [12]: 7.89%
viability, T/C [13]: 97.5%
viability, T/C [14]: 103%
viability, T/C [15]: 93.2%
viability, T/C [16]: 77.8%
viability, T/C [17]: 83.7%
viability, T/C [18]: 7.36%
viability, T/C [19]: 97.3%
viability, T/C [20]: 109%
viability, T/C [21]: 87%
viability, T/C [22]: 94.5%
viability, T/C [23]: 76.5%
viability, T/C [24]: 10.1%
viability, T/C [25]: 86.7%
viability, T/C [26]: 98.1%
viability, T/C [27]: 95.5%
viability, T/C [28]: 94%
viability, T/C [29]: 82.3%
viability, T/C [30]: 7.72%
viability, T/C [31]: 113%
viability, T/C [32]: 94.6%
viability, T/C [33]: 90.6%
viability, T/C [34]: 91%
viability, T/C [35]: 84.8%
viability, T/C [36]: 9.36%
viability, T/C [37]: 108%
viability, T/C [38]: 104%
viability, T/C [39]: 106%
viability, T/C [40]: 105%
viability, T/C [41]: 87.6%
viability, T/C [42]: 8.89%

Structure (SMILES): CC(C)n1nc(-c2ccc3oc(N)nc3c2)c2c(N)ncnc21
viability, T/C (compound 0.000316 µM): 98% [middle of 4 runs]
viability, T/C (compound 0.001 µM): 96.1% [middle of 4 runs]
viability, T/C (compound 0.00316 µM): 99.7% [middle of 4 runs]
viability, T/C (compound 0.0316 µM): 78.8% [middle of 4 runs]
viability, T/C (compound 0.1 µM): 29.6% and 31.3% (2×) and 27.9%
IC50 (curve of compound): 63.7 nM [middle of 4 runs]

Structure (SMILES): CC(Cn1ccc(-c2ccc(C#N)c(Cl)c2)n1)NC(=O)c1cc(C(C)O)[nH]n1 (stereo unspecified)
viability, T/C (compound 0.0316 µM): 95.5% [middle of 4 runs]
viability, T/C (compound 0.1 µM): 99% [middle of 4 runs]
viability, T/C (compound 0.316 µM): 101% [middle of 4 runs]
viability, T/C (compound 1 µM): 102% (2×) and 82% and 108%
viability, T/C (compound 3.16 µM): 96.6% [middle of 4 runs]
viability, T/C (compound 10 µM): 97.3% [middle of 4 runs]
IC50 (curve of compound): > 10 µM

Structure (SMILES): CC(Nc1ccc2c(c1)OCCn1cc(N3C(=O)OCC3C(F)F)nc1-2)C(N)=O (stereo unspecified)
viability, T/C (compound 0.00316 µM): 99.1% [middle of 8 runs]
viability, T/C (compound 0.01 µM): 100% [middle of 8 runs]
viability, T/C (compound 0.1 µM): 98% [middle of 8 runs]
viability, T/C (compound 0.316 µM): 73.4% [middle of 8 runs]
viability, T/C (compound 1 µM): 50.1% [middle of 8 runs]

Structure (SMILES): CC1(C)CCC(CN2CCN(c3ccc(C(=O)NS(=O)(=O)c4ccc(NCC5CCOCC5)c([N+](=O)[O-])c4)c(Oc4cnc5[nH]ccc5c4)c3)CC2)=C(c2ccc(Cl)cc2)C1 + CC(Nc1ccc2c(c1)OCCn1cc(N3C(=O)OCC3C(F)F)nc1-2)C(N)=O
IC50 [43]: 4.58 µM
IC50 [44]: 4.54 µM
IC50 [1]: 4.36 µM
IC50 [2]: 3.65 µM
IC50 [3]: 3.38 µM
IC50 [4]: < 0.0316 µM
viability, T/C [45]: 97.8%
viability, T/C [46]: 99.7%
viability, T/C [47]: 95.3%
viability, T/C [48]: 91.9%
viability, T/C [49]: 71.2%
viability, T/C [50]: 5.92%
viability, T/C [51]: 107%
viability, T/C [52]: 94.3%
viability, T/C [53]: 95.1%
viability, T/C [54]: 95.3%
viability, T/C [55]: 71.1%
viability, T/C [56]: 3.55%
viability, T/C [7]: 106%
viability, T/C [8]: 108%
viability, T/C [9]: 99.4%
viability, T/C [10]: 89.4%
viability, T/C [11]: 71%
viability, T/C [12]: 2.8%
viability, T/C [13]: 98.6%
viability, T/C [14]: 99.9%
viability, T/C [15]: 87.5%
viability, T/C [16]: 78.3%
viability, T/C [17]: 60.3%
viability, T/C [18]: 2.37%
viability, T/C [19]: 86.1%
viability, T/C [20]: 83.3%
viability, T/C [21]: 67.5%
viability, T/C [22]: 71.1%
viability, T/C [23]: 56.2%
viability, T/C [24]: 0.63%
viability, T/C [25]: 47.5%
viability, T/C [26]: 44.8%
viability, T/C [27]: 46.3%
viability, T/C [28]: 46.1%
viability, T/C [29]: 34.4%
viability, T/C [30]: 0.99%

Now from value to compound, other results behind:

IC50 [43]: 3.6 µM
IC50 [44]: 3.86 µM
IC50 [1]: 3.52 µM
IC50 [2]: 1.65 µM
IC50 [3]: 0.0569 µM
IC50 [4]: < 0.0316 µM
Structure (SMILES): CC1(C)CCC(Nc2ncc(C(F)(F)F)c(-c3c[nH]c4c(P(C)(C)=O)c(C#N)ccc34)n2)CN1 (stereo unspecified) + CC(Nc1ccc2c(c1)OCCn1cc(N3C(=O)OCC3C(F)F)nc1-2)C(N)=O
viability, T/C [45]: 71.6%
viability, T/C [46]: 45.1%
viability, T/C [47]: 52.8%
viability, T/C [48]: 56.5%
viability, T/C [49]: 56.6%
viability, T/C [50]: 1.03%
viability, T/C [51]: 69.1%
viability, T/C [52]: 52.9%
viability, T/C [53]: 55%
viability, T/C [54]: 58.9%
viability, T/C [55]: 66.3%
viability, T/C [56]: 0.23%
viability, T/C [7]: 78%
viability, T/C [8]: 54.3%
viability, T/C [9]: 51.7%
viability, T/C [10]: 57.8%
viability, T/C [11]: 55.3%
viability, T/C [12]: 0.17%
viability, T/C [13]: 72.7%
viability, T/C [14]: 54.3%
viability, T/C [15]: 60.4%
viability, T/C [16]: 55.6%
viability, T/C [17]: 43.6%
viability, T/C [18]: 0.46%
viability, T/C [19]: 54.2%
viability, T/C [20]: 49.7%
viability, T/C [21]: 33.4%
viability, T/C [22]: 41%
viability, T/C [23]: 22.6%
viability, T/C [24]: 0.44%
viability, T/C [25]: 34.5%
viability, T/C [26]: 29.1%
viability, T/C [27]: 22.6%
viability, T/C [28]: 26.4%
viability, T/C [29]: 12.2%
viability, T/C [30]: 1.38%

IC50 [1]: > 10 µM
IC50 [2]: > 10 µM
IC50 [3]: > 10 µM
IC50 [4]: > 10 µM
IC50 [5]: 0.605 µM
IC50 [6]: < 0.0316 µM
Structure (SMILES): C=CC(=O)N1CCN(c2nc(=O)n(-c3c(C)ccnc3C(C)C)c3nc(-c4c(O)cccc4F)c(F)cc23)C(C)C1 (stereo unspecified) + Cc1nc(NC(=O)N2CCCC2C(N)=O)sc1-c1ccnc(C(C)(C)C(F)(F)F)c1
viability, T/C [7]: 83.7%
viability, T/C [8]: 108%
viability, T/C [9]: 105%
viability, T/C [10]: 88.1%
viability, T/C [11]: 100%
viability, T/C [12]: 94.8%
viability, T/C [13]: 102%
viability, T/C [14]: 99.2%
viability, T/C [15]: 106%
viability, T/C [16]: 95.6%
viability, T/C [17]: 92%
viability, T/C [18]: 103%
viability, T/C [19]: 108%
viability, T/C [20]: 107%
viability, T/C [21]: 96.6%
viability, T/C [22]: 104%
viability, T/C [23]: 86.9%
viability, T/C [24]: 85%
viability, T/C [25]: 93.4%
viability, T/C [26]: 102%
viability, T/C [27]: 87.6%
viability, T/C [28]: 94.5%
viability, T/C [29]: 80%
viability, T/C [30]: 57.5%
viability, T/C [31]: 61.6%
viability, T/C [32]: 51.9%
viability, T/C [33]: 46.5%
viability, T/C [34]: 52.7%
viability, T/C [35]: 41.1%
viability, T/C [36]: 26.3%
viability, T/C [37]: 11.1%
viability, T/C [38]: 12.8%
viability, T/C [39]: 14.5%
viability, T/C [40]: 9.26%
viability, T/C [41]: 10.8%
viability, T/C [42]: 13.2%
